According to the NIST ThermoML archive (doi:10.1016/j.jct.2011.05.018):

Experiment: xn = mol fraction of the nth substance listed
Conditions: 101 kPa, Liquid; for viscosity: Capillary tube (Ostwald / Ubbelohde) method; for speed of sound: Pulse-echo method; for mass density: Pycnometric method

COc1ccc(C=O)cc1 [4-methoxybenzaldehyde] + Cc1cccc(O)c1
Conditions | mass density [kg/m3] | speed of sound [m/s] | viscosity [mPa·s]
303.15 K, x1 = 0.0883 | 1031.6 | 1487.6 | 8.513
303.15 K, x1 = 0.1789 | 1037.8 | 1507.8 | 8.028
303.15 K, x1 = 0.2719 | 1044 | 1528.6 | 7.569
303.15 K, x1 = 0.3674 | 1052.6 | 1550.3 | 7.051
303.15 K, x1 = 0.4656 | 1060.7 | 1572.5 | 6.528
303.15 K, x1 = 0.5665 | 1068 | 1595.6 | 5.969
303.15 K, x1 = 0.6703 | 1076.4 | 1619.1 | 5.331
303.15 K, x1 = 0.777 | 1088 | 1643.4 | 4.593
303.15 K, x1 = 0.8869 | 1104.5 | 1668.4 | 3.93
303.15 K, x1 = 1 | 1125.2 | 1694.3 | 3.251
308.15 K, x1 = 0.0883 | 1026.7 | 1471.4 | 7.108
308.15 K, x1 = 0.1789 | 1032.4 | 1490.9 | 6.747
308.15 K, x1 = 0.2719 | 1038 | 1511 | 6.421
308.15 K, x1 = 0.3674 | 1045.4 | 1532.1 | 6.046
308.15 K, x1 = 0.4656 | 1052.3 | 1553.4 | 5.659
308.15 K, x1 = 0.5665 | 1060 | 1575.6 | 5.237
308.15 K, x1 = 0.6703 | 1066.1 | 1598.2 | 4.741
308.15 K, x1 = 0.777 | 1077.2 | 1621.6 | 4.151
308.15 K, x1 = 0.8869 | 1092.6 | 1645.7 | 3.648
308.15 K, x1 = 1 | 1111.6 | 1670.7 | 3.131
313.15 K, x1 = 0.0883 | 1022.8 | 1455.7 | 5.894
313.15 K, x1 = 0.1789 | 1028.4 | 1473.1 | 5.629
313.15 K, x1 = 0.2719 | 1034.8 | 1490.7 | 5.393
313.15 K, x1 = 0.3674 | 1042.8 | 1509.2 | 5.13
313.15 K, x1 = 0.4656 | 1049.1 | 1528.1 | 4.858
313.15 K, x1 = 0.5665 | 1056.8 | 1547.6 | 4.555
313.15 K, x1 = 0.6703 | 1064.4 | 1567.4 | 4.181
313.15 K, x1 = 0.777 | 1075.1 | 1588.1 | 3.724
313.15 K, x1 = 0.8869 | 1090.9 | 1609.3 | 3.34
313.15 K, x1 = 1 | 1109.5 | 1631.3 | 2.961
318.15 K, x1 = 0.0883 | 1019.2 | 1437.7 | 4.849
318.15 K, x1 = 0.1789 | 1026.5 | 1449.6 | 4.655
318.15 K, x1 = 0.2719 | 1033.4 | 1461.5 | 4.47
318.15 K, x1 = 0.3674 | 1041.6 | 1474.1 | 4.272
318.15 K, x1 = 0.4656 | 1048.2 | 1487 | 4.085
318.15 K, x1 = 0.5665 | 1055.2 | 1500.1 | 3.868
318.15 K, x1 = 0.6703 | 1062.5 | 1513.5 | 3.586
318.15 K, x1 = 0.777 | 1073.3 | 1527.5 | 3.236
318.15 K, x1 = 0.8869 | 1088.4 | 1542 | 2.949
318.15 K, x1 = 1 | 1104.7 | 1557 | 2.682

Cc1ccc(O)cc1 [4-methylphenol] + COc1ccc(C=O)cc1
x2 = 0
Conditions | mass density [kg/m3] | speed of sound [m/s] | viscosity [mPa·s]
303.15 K | 1026.5 | 1468.4 | 9.54
308.15 K | 1022 | 1455.8 | 8.119
313.15 K | 1018.1 | 1443.7 | 6.741
318.15 K | 1013.9 | 1432.7 | 5.469

COc1ccc(C=O)cc1 [4-methoxybenzaldehyde] + Cc1ccccc1O
Conditions | mass density [kg/m3] | speed of sound [m/s] | viscosity [mPa·s]
303.15 K, x1 = 0.0875 | 1039.2 | 1507.7 | 7.163
303.15 K, x1 = 0.1774 | 1044.2 | 1526.3 | 6.824
303.15 K, x1 = 0.2699 | 1050.1 | 1545.5 | 6.519
303.15 K, x1 = 0.3651 | 1058.5 | 1565 | 6.202
303.15 K, x1 = 0.4631 | 1067.1 | 1585.2 | 5.778
303.15 K, x1 = 0.564 | 1074.3 | 1611.2 | 5.319
303.15 K, x1 = 0.668 | 1081.3 | 1637 | 4.811
303.15 K, x1 = 0.7753 | 1093.2 | 1658.9 | 4.261
303.15 K, x1 = 0.8859 | 1106.6 | 1681.5 | 3.758
303.15 K, x1 = 1 | 1125.2 | 1694.3 | 3.251
308.15 K, x1 = 0.0875 | 1033.8 | 1488.3 | 5.762
308.15 K, x1 = 0.1774 | 1038.2 | 1506.2 | 5.54
308.15 K, x1 = 0.2699 | 1043.4 | 1524.9 | 5.361
308.15 K, x1 = 0.3651 | 1050.6 | 1544.2 | 5.168
308.15 K, x1 = 0.4631 | 1058.4 | 1564 | 4.874
308.15 K, x1 = 0.564 | 1065 | 1589.4 | 4.56
308.15 K, x1 = 0.668 | 1071.5 | 1613.8 | 4.196
308.15 K, x1 = 0.7753 | 1082.8 | 1635.2 | 3.815
308.15 K, x1 = 0.8859 | 1095.3 | 1657.2 | 3.475
308.15 K, x1 = 1 | 1111.6 | 1670.7 | 3.131
313.15 K, x1 = 0.0875 | 1030.2 | 1470.7 | 4.162
313.15 K, x1 = 0.1774 | 1034.7 | 1486.3 | 4.072
313.15 K, x1 = 0.2699 | 1040.9 | 1502.6 | 4.007
313.15 K, x1 = 0.3651 | 1047.3 | 1519.6 | 3.936
313.15 K, x1 = 0.4631 | 1055.4 | 1536.9 | 3.806
313.15 K, x1 = 0.564 | 1062.1 | 1560.3 | 3.673
313.15 K, x1 = 0.668 | 1070 | 1580 | 3.494
313.15 K, x1 = 0.7753 | 1082.1 | 1598.1 | 3.291
313.15 K, x1 = 0.8859 | 1094.9 | 1617.6 | 3.126
313.15 K, x1 = 1 | 1109.5 | 1631.3 | 2.961
318.15 K, x1 = 0.0875 | 1026.3 | 1449.6 | 2.269
318.15 K, x1 = 0.1774 | 1031.9 | 1460.1 | 2.313
318.15 K, x1 = 0.2699 | 1038.3 | 1470.9 | 2.363
318.15 K, x1 = 0.3651 | 1044.3 | 1482.2 | 2.414
318.15 K, x1 = 0.4631 | 1052.8 | 1493.9 | 2.451
318.15 K, x1 = 0.564 | 1059.5 | 1511.3 | 2.496
318.15 K, x1 = 0.668 | 1067.7 | 1524.3 | 2.543
318.15 K, x1 = 0.7753 | 1078.8 | 1536.6 | 2.589
318.15 K, x1 = 0.8859 | 1090.1 | 1549.5 | 2.631
318.15 K, x1 = 1 | 1104.7 | 1557 | 2.682

Cc1ccccc1O [2-methylphenol] + COc1ccc(C=O)cc1
x2 = 0
Conditions | mass density [kg/m3] | speed of sound [m/s] | viscosity [mPa·s]
303.15 K | 1036.2 | 1485.3 | 7.479
308.15 K | 1031 | 1466.8 | 5.963
313.15 K | 1026 | 1452.1 | 4.238
318.15 K | 1021.1 | 1437.1 | 2.215

Cc1cccc(O)c1 [3-methylphenol] + COc1ccc(C=O)cc1
x2 = 0
Conditions | mass density [kg/m3] | speed of sound [m/s] | viscosity [mPa·s]
303.15 K | 1025.8 | 1464.2 | 8.929
308.15 K | 1021.5 | 1449.3 | 7.412
313.15 K | 1017 | 1436.3 | 6.116
318.15 K | 1013.5 | 1424.2 | 5.019

COc1ccc(C=O)cc1 [4-methoxybenzaldehyde] + Cc1ccc(O)cc1
Conditions | mass density [kg/m3] | speed of sound [m/s] | viscosity [mPa·s]
303.15 K, x1 = 0.0882 | 1032.1 | 1492 | 9.142
303.15 K, x1 = 0.1788 | 1038.5 | 1511.2 | 8.618
303.15 K, x1 = 0.2717 | 1044.6 | 1532.1 | 8.086
303.15 K, x1 = 0.3673 | 1053 | 1553.5 | 7.524
303.15 K, x1 = 0.4654 | 1061.2 | 1575.9 | 7.064
303.15 K, x1 = 0.5663 | 1068.4 | 1599.1 | 6.543
303.15 K, x1 = 0.6701 | 1076.7 | 1622.7 | 5.753
303.15 K, x1 = 0.7769 | 1089.3 | 1646.6 | 5.04
303.15 K, x1 = 0.8868 | 1105.6 | 1671.3 | 4.265
303.15 K, x1 = 1 | 1125.2 | 1694.3 | 3.251
308.15 K, x1 = 0.0882 | 1027.7 | 1477 | 7.824
308.15 K, x1 = 0.1788 | 1033 | 1496.4 | 7.419
308.15 K, x1 = 0.2717 | 1038.6 | 1516.2 | 7.002
308.15 K, x1 = 0.3673 | 1045.9 | 1536.6 | 6.568
308.15 K, x1 = 0.4654 | 1053 | 1558 | 6.218
308.15 K, x1 = 0.5663 | 1060.5 | 1580.1 | 5.826
308.15 K, x1 = 0.6701 | 1066.8 | 1602.5 | 5.158
308.15 K, x1 = 0.7769 | 1077.5 | 1625.2 | 4.604
308.15 K, x1 = 0.8868 | 1093 | 1648.6 | 3.965
308.15 K, x1 = 1 | 1111.6 | 1670.7 | 3.131
313.15 K, x1 = 0.0882 | 1024.2 | 1462.2 | 6.529
313.15 K, x1 = 0.1788 | 1029.7 | 1479.1 | 6.242
313.15 K, x1 = 0.2717 | 1035.9 | 1496.4 | 5.913
313.15 K, x1 = 0.3673 | 1044 | 1514.2 | 5.582
313.15 K, x1 = 0.4654 | 1050.3 | 1533 | 5.339
313.15 K, x1 = 0.5663 | 1057.6 | 1552.4 | 5.07
313.15 K, x1 = 0.6701 | 1065.6 | 1572 | 4.541
313.15 K, x1 = 0.7769 | 1076.5 | 1591.7 | 4.099
313.15 K, x1 = 0.8868 | 1091.7 | 1612 | 3.609
313.15 K, x1 = 1 | 1109.5 | 1631.3 | 2.961
318.15 K, x1 = 0.0882 | 1020 | 1445.1 | 5.316
318.15 K, x1 = 0.1788 | 1027.2 | 1456.5 | 5.115
318.15 K, x1 = 0.2717 | 1033.9 | 1467.9 | 4.87
318.15 K, x1 = 0.3673 | 1042.1 | 1479.6 | 4.616
318.15 K, x1 = 0.4654 | 1048.9 | 1492.3 | 4.431
318.15 K, x1 = 0.5663 | 1055.4 | 1505.4 | 4.259
318.15 K, x1 = 0.6701 | 1063 | 1518.5 | 3.861
318.15 K, x1 = 0.7769 | 1073.7 | 1531.2 | 3.523
318.15 K, x1 = 0.8868 | 1088.9 | 1544.7 | 3.163
318.15 K, x1 = 1 | 1104.7 | 1557 | 2.682
